The subject of data set [1] is Schoenoplectiella juncoides. Briefly: Herbicidal activity against Schoenoplectiella juncoides assessed as weed control in transplanted rice field at 1500 g/ha treated after 3 days transplanting. The format is functional.
Data set [2] deals with unidentified. Nature of the data set: Herbicidal activity against broadleaf weed assessed as weed control in transplanted rice field at 1500 g/ha treated after 3 days transplanting. The format is functional.
Data set [3] relates to Pontederia vaginalis. Briefly: Herbicidal activity against Monochoria vaginalis assessed as weed control in transplanted rice field at 1500 g/ha treated after 7 days transplanting. The format is functional.
The test system of data set [4] is Oryza sativa. Nature of the data set: Effect on Oryza sativa (rice) plant growth in transplanted Oryza sativa field assessed as number of tillers at 1500 g/ha treated after 3 days transplanting. Particulars: in vivo, other, 72 h. The format is organism-based.
The subject of data set [5] is Sagittaria pygmaea. Nature of the data set: Herbicidal activity against Sagittaria pygmaea assessed as weed control in transplanted rice field at 1500 g/ha treated after 3 days transplanting. The data set is classed as functional.
Data set [6] deals with unidentified. Nature of the data set: Herbicidal activity against broadleaf weed assessed as weed control in transplanted rice field at 1500 g/ha treated after 7 days transplanting. The data set is classed as functional.
The subject of data set [7] is Cyperus serotinus. Nature of the data set: Herbicidal activity against Cyperus serotinus assessed as weed control in transplanted rice field at 1500 g/ha treated after 7 days transplanting. The data set is classed as functional.
Data set [8] concerns Cyperus serotinus. Briefly: Herbicidal activity against Cyperus serotinus assessed as weed control in transplanted rice field at 1500 g/ha treated after 3 days transplanting. The format is functional.
In data set [9] the test system is Echinochloa crus-galli. Nature of the data set: Herbicidal activity against Echinochloa crus-galli (barnyard grass) assessed as weed control in transplanted rice field at 1500 g/ha treated after 7 days transplanting. The data set is classed as functional.
Data set [10] relates to Schoenoplectiella juncoides. Briefly: Herbicidal activity against Schoenoplectiella juncoides assessed as weed control in transplanted rice field at 1500 g/ha treated after 7 days transplanting. The data set is classed as functional.
The test system of data set [11] is Oryza sativa. Briefly: Effect on Oryza sativa (rice) plant growth in transplanted Oryza sativa field assessed as plant height at 1500 g/ha treated after 3 days transplanting. The data set is classed as organism-based. Particulars: in vivo, other, 72 h.
Data set [12] concerns Echinochloa crus-galli. Nature of the data set: Herbicidal activity against Echinochloa crus-galli (barnyard grass) assessed as weed control in transplanted rice field at 1500 g/ha treated after 3 days transplanting. The data set is classed as functional.
For data set [13], the system named is Sagittaria pygmaea. Briefly: Herbicidal activity against Sagittaria pygmaea assessed as weed control in transplanted rice field at 1500 g/ha treated after 7 days transplanting. The data set is classed as functional.
Data set [14] has as its system Pontederia vaginalis. Nature of the data set: Herbicidal activity against Monochoria vaginalis assessed as weed control in transplanted rice field at 1500 g/ha treated after 3 days transplanting. The data set is classed as functional.
In data set [15] the test system is Oryza sativa. Briefly: Effect on Oryza sativa (rice) plant growth in transplanted Oryza sativa field assessed as number of tillers at 1500 g/ha treated after 7 days transplanting. The format is organism-based. Particulars: in vivo, other, 168 h.
Data set [16] concerns Oryza sativa. Nature of the data set: Effect on Oryza sativa (rice) plant growth in transplanted Oryza sativa field assessed as plant height at 1500 g/ha treated after 7 days transplanting. To be noted: in vivo, other, 168 h. The data set is classed as organism-based.
The subject of data set [17] is Echinochloa crus-galli. Nature of the data set: Herbicidal activity against Echinochloa crus-galli (barnyard grass) assessed as growth inhibition in paddy condition under greenhouse at 5 g/ha measured after 18 days by preemergence activity assay. The data set is classed as functional. To be noted: pre-emergence, 432 h, read-out: GI.
Data set [18] has as its system Pontederia vaginalis. Nature of the data set: Herbicidal activity against Monochoria vaginalis assessed as growth inhibition in paddy condition under greenhouse at 5 g/ha measured after 18 days by preemergence activity assay. The format is functional. Particulars: pre-emergence, 432 h, read-out: GI.
Data set [19] has as its system Schoenoplectiella juncoides. Nature of the data set: Herbicidal activity against Schoenoplectiella juncoides assessed as growth inhibition in paddy condition under greenhouse at 5 g/ha measured after 18 days by preemergence activity assay. To be noted: pre-emergence, 432 h, read-out: GI. The format is functional.
In the next data set the test system is Rotala indica. Nature of the data set: Herbicidal activity against Rotala indica assessed as growth inhibition in paddy condition under greenhouse at 5 g/ha measured after 18 days by preemergence activity assay. The data set is classed as functional. To be noted: pre-emergence, 432 h, read-out: GI.
Data set [20] can be described thus: Phytotoxicity against Oryza sativa (rice) assessed as growth inhibition under greenhouse at 5 g/ha measured after 18 days by preemergence activity assay. The format is organism-based. Particulars: in vivo, read-out: GI.

This is an account of results in ChEMBL document CHEMBL3046449, “Selective Herbicidal Activities of Ethyl 5-(4, 6-Dimethoxypyrimidin-2-ylcarbamoylsulfamoyl)-1-methylpyrazole-4-carboxylate and Its Related Compounds” (J Pestic Sci, 1990).

Structures are written as SMILES. Where only a bound is given, the exact number is not on record here.

In the case of `CCCCOCN(C(=O)CCl)c1c(CC)cccc1CC` [BUTACHLOR], the Activity was 100% in [1]; 100% in the data set with unidentified [2]; 43% with Pontederia vaginalis [3]; 99% with Oryza sativa [4]; 27% with Sagittaria pygmaea [5]; 83% in the data set with unidentified [6]. Further, the Activity with Cyperus serotinus [7] is reported as 70%; in the data set on Cyperus serotinus [8], 63%; in the data set with Echinochloa crus-galli [9] it was 100%; in data set [10], 88%; in the data set with Oryza sativa [11], 106%; with Echinochloa crus-galli [12], 98%. In addition, the Activity is given as 20% in the data set with Sagittaria pygmaea [13], 90% in the data set on Pontederia vaginalis [14], 93% in the data set on Oryza sativa [15] and 103% in the data set on Oryza sativa [16].

With `CCOC(=O)c1c([N+](=O)[O-])nn(C)c1S(=O)(=O)NC(=O)Nc1nc(OC)cc(OC)n1`, the inhibition of growth at 5 g/ha with Echinochloa crus-galli [17] is less than 5%; in the data set on Pontederia vaginalis [18] it was 20%; in [19], 5%; with Rotala indica it was 70%. Also, the inhibition at 432 h in data set [20] is 5%.

Regarding `COc1cc(OC)nc(NC(=O)NS(=O)(=O)c2c(C#N)cnn2C)n1`, the inhibition of growth at 5 g/ha (in the data set with Echinochloa crus-galli [17]; in the data set with Pontederia vaginalis [18]; in [19]; with Rotala indica) was less than 5% throughout. The inhibition at 432 h in [20] was less than 5%.
